# Measured values: patent US20190350964A1, “ANTI-CANCER COMPOUNDS AND USES THEREOF” (NATIONAL UNIVERSITY OF SINGAPORE, priority 2016, published 2019)
# What was measured:
# WI38 = test: MTT cytotoxicity test (GI50); type: cell-based; conditions: Homo sapiens, WI-38; WI38, normal, lung; MTT 72 h
# PIK3IP1 = test: qRT-PCR of PIK3IP1 mRNA in Ras- or Raf-mutant cancer cell lines; type: cell-based, human; conditions: 2.5 and 5 μM, 24 h; compared with normal cells
# Description: […] human […] ID NO: 11, [NT] ID NO: 12), human […] ID NO: 13, [NT] ID NO: 14), human […] ID NO: 15, [NT] ID NO: 16) and human PIK3IP1 ([NT] ID NO: 17, [NT] ID NO: 18). The TATA-binding protein (TBP) gene was used for normalization. All PCR reactions were performed in triplicate.
# A549 = test: MTT cytotoxicity test (GI50); type: cell-based; conditions: Homo sapiens; A549, cancer, others, lung; MTT 72 h
# NCC24 = test: MTT cytotoxicity test (GI50); type: cell-based; conditions: Homo sapiens; NCC24, cancer, gastric; MTT 72 h
# BJ normal = test: MTT cytotoxicity test (GI50); type: cell-based; conditions: Homo sapiens, skin, MTT 72 h
# IM95 = test: MTT cytotoxicity test (GI50); type: cell-based; conditions: Homo sapiens; IM95, cancer, gastric; MTT 72 h
# [1] = target: T1, AP-3 complex subunit sigma-1 (Homo sapiens, UniProt Q92572); test: MS-CETSA in normal BJ cell lysates; type: binding; conditions: lysate, 100 μM compound
# T1 construct: After collecting data covering >8,000 proteins in lysates of normal BJ cells; endogenous in cells; host or cells: normal BJ cells, lysate
# T1 sequence (Q92572 whole entry): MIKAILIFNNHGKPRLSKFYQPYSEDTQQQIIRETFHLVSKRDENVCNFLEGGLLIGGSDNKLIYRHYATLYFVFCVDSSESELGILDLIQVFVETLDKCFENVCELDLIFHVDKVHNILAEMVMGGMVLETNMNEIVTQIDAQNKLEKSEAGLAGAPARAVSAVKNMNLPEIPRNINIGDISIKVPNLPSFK
# T1 sequence (O14617 whole entry partner): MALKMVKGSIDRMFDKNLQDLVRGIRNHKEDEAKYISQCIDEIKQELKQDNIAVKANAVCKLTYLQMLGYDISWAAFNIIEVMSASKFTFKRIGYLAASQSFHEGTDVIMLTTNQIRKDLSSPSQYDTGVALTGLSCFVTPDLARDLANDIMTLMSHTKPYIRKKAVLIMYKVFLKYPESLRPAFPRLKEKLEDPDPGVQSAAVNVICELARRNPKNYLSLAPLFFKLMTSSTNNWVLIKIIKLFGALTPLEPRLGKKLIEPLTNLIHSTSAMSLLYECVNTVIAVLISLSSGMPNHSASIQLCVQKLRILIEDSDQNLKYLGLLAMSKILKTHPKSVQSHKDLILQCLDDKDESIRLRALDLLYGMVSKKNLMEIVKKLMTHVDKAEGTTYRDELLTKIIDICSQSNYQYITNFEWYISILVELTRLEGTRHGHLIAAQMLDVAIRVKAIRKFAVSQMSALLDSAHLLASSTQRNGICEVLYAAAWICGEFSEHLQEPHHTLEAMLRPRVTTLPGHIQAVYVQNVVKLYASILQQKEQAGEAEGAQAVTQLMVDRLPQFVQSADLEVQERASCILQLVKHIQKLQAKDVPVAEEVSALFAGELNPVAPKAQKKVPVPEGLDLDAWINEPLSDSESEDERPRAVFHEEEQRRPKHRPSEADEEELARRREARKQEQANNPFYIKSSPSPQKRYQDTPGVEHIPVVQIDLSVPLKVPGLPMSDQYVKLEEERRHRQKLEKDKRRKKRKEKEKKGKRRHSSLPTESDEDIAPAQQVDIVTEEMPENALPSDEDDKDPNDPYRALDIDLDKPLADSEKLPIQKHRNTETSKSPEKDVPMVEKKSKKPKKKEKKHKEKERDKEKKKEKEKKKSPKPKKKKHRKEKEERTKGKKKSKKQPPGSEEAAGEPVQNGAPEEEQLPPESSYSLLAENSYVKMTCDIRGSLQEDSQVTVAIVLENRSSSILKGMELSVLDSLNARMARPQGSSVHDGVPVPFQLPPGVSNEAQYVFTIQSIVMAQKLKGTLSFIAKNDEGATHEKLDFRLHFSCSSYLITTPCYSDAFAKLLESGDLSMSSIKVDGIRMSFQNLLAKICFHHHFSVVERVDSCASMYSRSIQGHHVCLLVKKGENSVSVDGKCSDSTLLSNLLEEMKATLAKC
# T1 sequence (O00203 whole entry partner): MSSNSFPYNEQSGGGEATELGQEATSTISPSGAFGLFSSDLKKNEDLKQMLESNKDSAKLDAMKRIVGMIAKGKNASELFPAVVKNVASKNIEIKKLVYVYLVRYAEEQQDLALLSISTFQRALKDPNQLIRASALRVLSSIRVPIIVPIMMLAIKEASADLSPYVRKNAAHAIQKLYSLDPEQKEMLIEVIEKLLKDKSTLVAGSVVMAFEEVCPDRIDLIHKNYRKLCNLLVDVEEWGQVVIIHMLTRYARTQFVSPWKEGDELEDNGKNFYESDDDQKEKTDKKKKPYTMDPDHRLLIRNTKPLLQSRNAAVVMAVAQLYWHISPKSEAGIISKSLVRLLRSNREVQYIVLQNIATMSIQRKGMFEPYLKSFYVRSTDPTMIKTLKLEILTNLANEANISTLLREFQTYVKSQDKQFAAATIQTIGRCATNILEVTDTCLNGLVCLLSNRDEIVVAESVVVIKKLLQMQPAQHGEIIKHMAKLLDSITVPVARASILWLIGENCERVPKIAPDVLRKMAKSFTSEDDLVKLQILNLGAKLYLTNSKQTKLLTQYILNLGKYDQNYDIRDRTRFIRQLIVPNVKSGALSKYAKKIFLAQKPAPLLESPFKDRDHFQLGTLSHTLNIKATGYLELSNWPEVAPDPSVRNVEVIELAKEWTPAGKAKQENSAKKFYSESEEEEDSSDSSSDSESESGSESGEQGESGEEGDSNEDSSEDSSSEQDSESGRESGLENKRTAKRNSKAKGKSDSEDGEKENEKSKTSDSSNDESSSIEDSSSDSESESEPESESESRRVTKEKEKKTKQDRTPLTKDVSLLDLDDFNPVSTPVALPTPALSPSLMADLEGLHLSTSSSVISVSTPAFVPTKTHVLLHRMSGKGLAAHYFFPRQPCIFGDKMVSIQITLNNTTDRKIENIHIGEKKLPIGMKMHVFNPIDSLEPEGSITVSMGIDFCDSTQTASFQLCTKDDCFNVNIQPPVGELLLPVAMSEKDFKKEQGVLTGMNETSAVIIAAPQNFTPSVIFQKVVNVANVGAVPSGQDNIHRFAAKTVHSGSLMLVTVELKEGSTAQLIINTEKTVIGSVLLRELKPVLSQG
# T1 sequence (Q9Y2T2 whole entry partner): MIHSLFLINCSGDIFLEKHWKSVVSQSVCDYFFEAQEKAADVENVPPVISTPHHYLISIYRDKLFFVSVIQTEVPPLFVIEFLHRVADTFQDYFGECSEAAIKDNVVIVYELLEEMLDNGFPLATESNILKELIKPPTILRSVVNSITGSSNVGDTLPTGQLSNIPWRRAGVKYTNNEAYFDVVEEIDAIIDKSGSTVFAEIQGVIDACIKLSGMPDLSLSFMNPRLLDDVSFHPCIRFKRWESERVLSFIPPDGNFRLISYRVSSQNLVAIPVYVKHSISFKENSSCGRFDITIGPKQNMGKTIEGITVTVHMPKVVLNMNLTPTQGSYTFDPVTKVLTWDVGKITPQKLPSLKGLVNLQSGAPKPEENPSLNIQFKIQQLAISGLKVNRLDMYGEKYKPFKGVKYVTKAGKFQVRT
# Description: (§1) Target identification was performed by cellular thermal shift assay (CETSA) coupled with quantitative mass spectrometry. In brief, normal BJ cells were lysed by combination of freeze/thaw and mechanical shearing with needle in buffer [50 mM HEPES (pH 7.5), 5 mM β-glycerophosphate, 0.1 mM Sodium Vanadate, 10 mM MgCl2, 1 mM TCEP and 1× Protease inhibitor Cocktail]. The cell debris was removed by centrifugation at 20,000 g for 20 min at 4° C. […] Each lysate was divided into 10 aliquots for heat treatment at the respective temperatures for 3 min in a 96-well thermocycler, followed by 3 min at 4° C. The lysate was centrifuged at 20,000 g for 20 min at 4° C. and the supernatant was transferred into microtubes for MS sample preparation.
# (§2) After lysis, at least 100 μg of the protein (measured with a BCA assay) was subjected to reduction, denaturation and alkylation. Samples were subsequently incubated with sequencing grade LysC (Wako) and trypsin (Promega) for digestion overnight at 37° C. The digested samples were dried using a centrifugal vacuum evaporator, solubilized in 100 mM TEAB. […]
# (§3) Proteins for which a low temperature plateau was not present were deleted using a cut off >0.85 for the average reading of the first three temperature points (in our experience proteins melting already at −37° C. are more prone to give false positives in a shift analysis).
# U2OS = test: MTT cytotoxicity test (GI50); type: cell-based; conditions: Homo sapiens, cancer, others, bone, MTT 72 h
# SNU1 = test: MTT cytotoxicity test (GI50); type: cell-based; conditions: Homo sapiens; SNU1, cancer, gastric; MTT 72 h
# [2] = target: T2, 3-hydroxybutyrate dehydrogenase type 2 (Homo sapiens, UniProt Q9BUT1); test: MS-CETSA in normal BJ cell lysates; type: binding; conditions: lysate, 100 μM compound
# T2 construct: After collecting data covering >8,000 proteins in lysates of normal BJ cells; endogenous in cells; host or cells: normal BJ cells, lysate
# T2 sequence (Q9BUT1 whole entry): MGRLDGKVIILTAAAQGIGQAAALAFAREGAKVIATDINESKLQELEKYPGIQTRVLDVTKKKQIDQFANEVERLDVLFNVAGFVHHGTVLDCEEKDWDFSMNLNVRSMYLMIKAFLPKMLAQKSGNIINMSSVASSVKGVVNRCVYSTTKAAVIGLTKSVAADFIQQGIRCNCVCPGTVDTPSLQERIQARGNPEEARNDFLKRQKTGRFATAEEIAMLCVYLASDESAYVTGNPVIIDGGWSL
# Description: as §1, §2, §3
# AZ521 = test: MTT cytotoxicity test (GI50); type: cell-based; conditions: Homo sapiens, AZ-521; AZ521, cancer, gastric; MTT 72 h
# SNU449 = test: MTT cytotoxicity test (GI50); type: cell-based; conditions: Homo sapiens, SNU-449; SNU449, cancer, liver; MTT 72 h
# Liprin-beta-1 = target: T3, Liprin-beta-1 (Homo sapiens, UniProt Q86W92); test: MS-CETSA in normal BJ cell lysates; type: binding; conditions: lysate, 100 μM compound
# T3 construct: After collecting data covering >8,000 proteins in lysates of normal BJ cells; endogenous in cells; host or cells: normal BJ cells, lysate
# T3 sequence (Q86W92 whole entry): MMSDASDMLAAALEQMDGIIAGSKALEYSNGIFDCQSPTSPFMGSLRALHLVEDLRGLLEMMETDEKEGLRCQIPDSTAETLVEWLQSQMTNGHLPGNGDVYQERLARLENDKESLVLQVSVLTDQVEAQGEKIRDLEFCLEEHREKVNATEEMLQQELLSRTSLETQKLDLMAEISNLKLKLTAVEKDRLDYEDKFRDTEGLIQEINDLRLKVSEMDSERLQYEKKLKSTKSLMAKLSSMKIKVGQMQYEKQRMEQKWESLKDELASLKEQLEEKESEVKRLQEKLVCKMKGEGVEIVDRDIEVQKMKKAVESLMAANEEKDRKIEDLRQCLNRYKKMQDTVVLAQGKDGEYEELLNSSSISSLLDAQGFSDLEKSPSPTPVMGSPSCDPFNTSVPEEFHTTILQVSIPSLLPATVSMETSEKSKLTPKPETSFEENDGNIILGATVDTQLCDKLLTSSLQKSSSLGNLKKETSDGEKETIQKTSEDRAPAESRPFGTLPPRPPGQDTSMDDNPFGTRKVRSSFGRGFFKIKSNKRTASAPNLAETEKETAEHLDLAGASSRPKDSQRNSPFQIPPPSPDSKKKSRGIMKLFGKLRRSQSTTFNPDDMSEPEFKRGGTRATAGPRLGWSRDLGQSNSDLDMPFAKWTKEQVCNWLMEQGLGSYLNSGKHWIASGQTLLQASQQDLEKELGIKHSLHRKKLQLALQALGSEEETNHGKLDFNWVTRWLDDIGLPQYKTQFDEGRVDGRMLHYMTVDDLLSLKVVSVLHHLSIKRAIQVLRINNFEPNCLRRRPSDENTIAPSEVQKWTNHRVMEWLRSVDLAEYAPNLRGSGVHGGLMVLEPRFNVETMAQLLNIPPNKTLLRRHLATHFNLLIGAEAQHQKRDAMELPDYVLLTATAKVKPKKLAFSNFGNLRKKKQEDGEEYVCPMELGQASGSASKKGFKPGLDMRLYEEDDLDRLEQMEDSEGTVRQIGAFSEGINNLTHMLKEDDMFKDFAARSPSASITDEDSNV
# Description: as §1, §2, §3
# [3] = target: T4, RNA-binding motif, single-stranded-interacting protein 1 (Homo sapiens, UniProt P29558); test: MS-CETSA in normal BJ cell lysates; conditions: Uniprot B4DN88, lysate, 100 μM compound
# T4 construct: After collecting data covering >8,000 proteins in lysates of normal BJ cells; endogenous in cells; host or cells: normal BJ cells, lysate
# T4 sequence (P29558 whole entry): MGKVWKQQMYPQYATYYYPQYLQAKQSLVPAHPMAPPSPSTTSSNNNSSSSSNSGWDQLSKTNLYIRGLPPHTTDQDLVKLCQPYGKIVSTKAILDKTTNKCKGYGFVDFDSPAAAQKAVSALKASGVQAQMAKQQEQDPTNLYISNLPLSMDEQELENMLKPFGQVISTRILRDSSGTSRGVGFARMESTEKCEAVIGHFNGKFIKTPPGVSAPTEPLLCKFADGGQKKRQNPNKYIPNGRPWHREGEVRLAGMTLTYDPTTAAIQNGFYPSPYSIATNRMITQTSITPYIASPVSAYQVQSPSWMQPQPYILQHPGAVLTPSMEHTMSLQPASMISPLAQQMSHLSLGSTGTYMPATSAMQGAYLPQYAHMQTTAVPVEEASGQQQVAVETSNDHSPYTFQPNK
# Description: as §1, §2, §3
# MCF7 = test: MTT cytotoxicity test (GI50); type: cell-based; conditions: Homo sapiens; MCF7, cancer, breast; MTT 72 h
# Huh7 = test: MTT cytotoxicity test (GI50); type: cell-based; conditions: Homo sapiens, Huh-7; Huh7, cancer, liver; MTT 72 h
# IMR90 = test: MTT cytotoxicity test (GI50); type: cell-based; conditions: Homo sapiens, IMR-90; IMR90, normal, lung; MTT 72 h
# human cancer cell lines = test: MTT cytotoxicity test, panel of human cancer cell lines; type: cell-based; conditions: mean over panel of human cancer cell lines; MTT 72 h
# IST1 = test: MTT cytotoxicity test (GI50); type: cell-based; conditions: Homo sapiens; IST1, cancer, gastric; MTT 72 h
# NCC59 = test: MTT cytotoxicity test (GI50); type: cell-based; conditions: Homo sapiens; NCC59, cancer, gastric; MTT 72 h
smiles,measurement,setting,value
"N#C/C(=C\c1cccc2cnccc12)c1c[nH]c2ccccc12 [a131, (Z)-2-(1H-indol-3-yl)-3-(5-isoquinolyl)prop-2-enenitrile]",GI50,WI38,3.4 µM
same,induction of PIK3IP1 in Ras- and Raf-mutant cancer cells,PIK3IP1,significantly attenuated
same,GI50,A549,2 µM
same,GI50,NCC24,1.2 µM
same,GI50,BJ normal,8.1 µM
same,GI50,IM95,1 µM
same,ED score,[1],0.3486
same,ΔTm at 100 µM,[1]; read-out: mean Delta Tm,2.26 °C
same,GI50,U2OS,1.5 µM
same,GI50,SNU1,0.9 µM
same,ED score,[2],0.5139
same,ΔTm at 100 µM,[2]; read-out: mean Delta Tm,1.83 °C
same,GI50,AZ521,2.4 µM
same,GI50,SNU449,2.3 µM
same,ED score,Liprin-beta-1,0.3387
same,ΔTm at 100 µM,Liprin-beta-1; read-out: mean Delta Tm,2.07 °C
same,ED score,[3],0.3144
same,ΔTm at 100 µM,[3]; read-out: mean Delta Tm,2.01 °C
same,GI50,MCF7,1.2 µM
same,GI50,Huh7,1.2 µM
same,GI50,IMR90,5.8 µM
same,GI50,human cancer cell lines,1.7 µM
same,GI50,IST1,2.2 µM
same,GI50,NCC59,0.9 µM
